US20230286973A1, “PROTEIN SECRETION INHIBITORS” (KEZAR LIFE SCIENCES, priority 2020, published 2023)
pEC50, pIC50: −log10 of the molar value.

Key:
[1] = Liver Microsome Stability Assay (rat); conditions: rat liver microsomes, with NADPH, 1.0 uM compound
Description: (§1) Stability of a compound was assessed in the presence of liver microsomes from various sources—mouse, rat, monkey and human liver microsomes. 1.0 uM compound, 0.4% DMSO in 0.1 M Potassium Phosphate with 1.0 mg/mL liver microsomes, were incubated at 37° C. with or without 1 mM NADPH. The samples were quenched at 0, and 30 minutes.

[2] = system: multiple myeloma cell line NCI-H929; assay: H929 Cell Viability Assay; format: cell-based, human; conditions: Homo sapiens, NCI-H929, 48 h, NCI-H929 cells, Celltiter-Glo
Outline: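 Luminescent ATP detection (CellTiter-Glo) after 48 hours of compound exposure measures viability. Cells were plated in RPMI 1640 containing 10% fetal bovine serum and kept at 37° C under 5% CO2.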

[3] = system: multiple myeloma cell line U266B1; assay: U266 Cell Viability Assay; format: cell-based, human; conditions: Homo sapiens, U-266, 48 h, U266B1 cells, Celltiter-Glo
Outline: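 Steps: culture in RPMI 1640 plus 10% FBS and 2 mM glutamine; plate and add compound dilutions; incubate 48 hours at 37° C., 5% CO2; add CellTiter-Glo and quantify luciferase signal.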

[4] = system: HER3-ss+4aa/Gaussia Luciferase; assay: Dox-Induced Her3-ss-Gluc Assay; format: cell-based; conditions: 24 hr Dox induction; 293FRT/TO cells; read-out: 24 hr Dox Inducible Her3(ss + 4)Gluc 293FRT/TO: Mean IC50
Outline: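 Cells were seeded a day ahead, then given compound diluted in DMSO/media with doxycycline to induce expression of the HER3 signal sequence (+4 aa)–Gaussia luciferase fusion. Incubation was at 37° C., 5% CO2, in a stable Flp-In 293 T-REx line.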

[5] = Liver Microsome Stability Assay (human); conditions: human liver microsomes, with NADPH, 1.0 uM compound
Description: as §1

[6] = system: TNFα-FL/Gaussia Luciferase; assay: Dox Induced TNFα-FL-Gluc Assay; format: cell-based; conditions: for pIC50: 24 hr Dox induction, 293FRT/TO cells, read-out: 24 hr Dox Inducible TNFaFLGluc 293FRT/TO: Mean IC50; for 24 hr Dox Inducible TNFaFLGluc 293FRT/TO: TNF/PD1: ratio of TNFaFLGluc IC50 to PD1ssGluc IC50
Outline: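 Stereoisomer mixtures were tested where stereochemistry is not drawn. Induction used doxycycline added together with compound dilutions in DMSO/media to Flp-In 293 T-REx cells carrying a T-REx-regulated TNFα (aa 1-233)-Gaussia luciferase construct, then incubated at 37 °C, 5% CO2.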

[7] = system: PD1-ss+10aa/Gaussia Luciferase; assay: Dox-Induced PD1-ss-Gluc Assay; format: cell-based; conditions: 24 hr Dox induction; 293FRT/TO cells; read-out: 24 hr Dox Inducible PD1ssGluc 293FRT/TO: Mean IC50
Outline: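 Stable Flp-In 293 T-REx cells carried a doxycycline-inducible construct of Gaussia luciferase fused to the PD1 signal sequence plus 10 amino acids. Cells were plated the day before, then treated with compound dilutions in DMSO/media containing doxycycline at 37 °C, 5% CO2.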

[8] = Liver Microsome Stability Assay (monkey); conditions: monkey liver microsomes, with NADPH, 1.0 uM compound
Description: as §1

[9] = Liver Microsome Stability Assay (mouse); conditions: mouse liver microsomes, with NADPH, 1.0 uM compound
Description: as §1

[10] = system: IL-2-FL/Gaussia Luciferase; assay: Dox Induced IL2-FL-Gluc Assay; format: cell-based; conditions: for pIC50: 24 hr Dox induction, 293FRT/TO cells, read-out: 24 hr Dox Inducible IL2FLGluc 293FRT/TO: Mean IC50; for 24 hr Dox Inducible IL2FLGluc 293FRT/TO: IL2/PD1: ratio of IL2FLGluc IC50 to PD1ssGluc IC50
Outline: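 Cells are plated one day ahead, then receive compound dilutions in DMSO/media with doxycycline and incubate at 37° C, 5% CO2. They are Flp-In 293 T-REx cells expressing a full-length IL-2 (amino acids 1-153)–Gaussia luciferase fusion under T-REx control.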

Row | SMILES | Liver Microsome Stability (Multiple Species): Rat - % Remaining after 30 min w/NADPH [1] [%] | pEC50 [2] | pEC50 [3] | pIC50 [4] | Liver Microsome Stability (Multiple Species): Human - % Remaining after 30 min w/NADPH [5] [%] | pIC50 [6] | 24 hr Dox Inducible TNFaFLGluc 293FRT/TO: TNF/PD1 [6] | pIC50 [7] | Liver Microsome Stability (Multiple Species): Monkey - % Remaining after 30 min w/NADPH [8] [%] | Liver Microsome Stability (Multiple Species): Mouse - % Remaining after 30 min w/NADPH [9] [%] | pIC50 [10] | 24 hr Dox Inducible IL2FLGluc 293FRT/TO: IL2/PD1 [10]
1 | CN(C)C(=O)Nc1ccc(N2CCC[C@@H]2c2csc(NC(=O)c3cccn3Cc3ccnc(F)c3)n2)cc1 [Compound A124, (R)-N-(4-(1-(4-(3,3-dimethylureido)phenyl)pyrrolidin-2-yl)thiazol-2-yl)-1-((2-fluoropyridin-4-yl)methyl)-1H-pyrrole-2-carboxamide] | 37.6 | 6.78 | < 4.60 | 8.04 | 53.1 | 7.12 | 15.6 | 8.31 | 27.8 | 31.2 | 7.98 | 2.1
2 | CNC(=O)N1CC(Oc2ccc(N3CCC[C@@H]3c3csc(NC(=O)c4cccn4Cc4ccnc(F)c4)n3)cc2)C1 [Compound A125, (R)-1-((2-fluoropyridin-4-yl)methyl)-N-(4-(1-(4-((1-(methylcarbamoyl)azetidin-3-yl)oxy)phenyl)pyrrolidin-2-yl)thiazol-2-yl)-1H-pyrrole-2-carboxamide] | 24.9 | 5.92 | < 4.60 | 7.54 | 26.2 | 6.49 | 14.3 | 7.65 | 10.1 | 45.1 | 7.19 | 2.9
3 | CC(=O)N1CCC(Oc2ccc(N3CCC[C@@H]3c3csc(NC(=O)c4cccn4Cc4ccnc(F)c4)n3)cc2C#N)CC1 [Compound A126, (R)-N-(4-(1-(4-((1-acetylpiperidin-4-yl)oxy)-3-cyanophenyl)pyrrolidin-2-yl)thiazol-2-yl)-1-((2-fluoropyridin-4-yl)methyl)-1H-pyrrole-2-carboxamide] | 0.78 | 5.95 | < 4.60 | 8.30 | 1.21 | 6.38 | 6.97 | 7.23 | 0.92 | 17.7 | 7.14 | 1.2
4 | COCCOc1ccc(N2CCC[C@@H]2c2csc(NC(=O)c3cccn3Cc3ccnc(F)c3)n2)cc1 [Compound A127, (R)-1-((2-fluoropyridin-4-yl)methyl)-N-(4-(1-(4-(2-methoxyethoxy)phenyl)pyrrolidin-2-yl)thiazol-2-yl)-1H-pyrrole-2-carboxamide] | 0.26 | 6.56 | < 4.60 | 7.97 | 30.6 | 6.97 | 19 | 8.25 | 24.4 | 3.95 | 7.99 | 1.8
5 | CS(=O)(=O)N1CCC(Oc2ccc(N3CCC[C@@H]3c3csc(NC(=O)c4cccn4Cc4ccnc(F)c4)n3)cc2)CC1 [Compound A128, (R)-1-((2-fluoropyridin-4-yl)methyl)-N-(4-(1-(4-((1-(methylsulfonyl)piperidin-4-yl)oxy)phenyl)pyrrolidin-2-yl)thiazol-2-yl)-1H-pyrrole-2-carboxamide] | 31.3 | 6.07 | < 4.60 | 7.17 | 28 | 6.31 | 13.1 | 7.42 | 4.62 | 25.5 | 7.22 | 1.6
6 | COc1cc(N2CCC[C@@H]2c2csc(NC(=O)c3cccn3Cc3ccnc(F)c3)n2)ccc1OC1CCN(C(C)=O)CC1 [Compound A129, (R)-N-(4-(1-(4-((1-acetylpiperidin-4-yl)oxy)-3-methoxyphenyl)pyrrolidin-2-yl)thiazol-2-yl)-1-((2-fluoropyridin-4-yl)methyl)-1H-pyrrole-2-carboxamide] | 0.45 | 6.40 | < 4.60 | 7.81 | 15.7 | 6.52 | 31.6 | 8.02 | 8.34 | 6.21 | 7.67 | 2.2
7 | NC(=O)N1CC(Oc2ccc(N3CCC[C@@H]3c3csc(NC(=O)c4cccn4Cc4ccnc(F)c4)n3)cc2)C1 [Compound A130, (R)-N-(4-(1-(4-((1-carbamoylazetidin-3-yl)oxy)phenyl)pyrrolidin-2-yl)thiazol-2-yl)-1-((2-fluoropyridin-4-yl)methyl)-1H-pyrrole-2-carboxamide] | 52.7 | 6.14 | < 4.60 | 7.56 | 32.5 | 6.17 | 43.1 | 7.80 | 25.4 | 53 | 7.18 | 4.2
8 | CN(C)C(=O)N1CC(Oc2ccc(N3CCC[C@@H]3c3csc(NC(=O)c4cccn4Cc4ccnc(F)c4)n3)cc2)C1 [Compound A131, (R)-N-(4-(1-(4-((1-(dimethylcarbamoyl)azetidin-3-yl)oxy)phenyl)pyrrolidin-2-yl)thiazol-2-yl)-1-((2-fluoropyridin-4-yl)methyl)-1H-pyrrole-2-carboxamide] | 42.9 | 5.96 | < 4.60 | 7.32 | 11.8 | 6.29 | 16.4 | 7.51 | 6.3 | 20.4 | 7.19 | 2.1
9 | CS(=O)(=O)N1CC(Oc2ccc(N3CCC[C@@H]3c3csc(NC(=O)c4cccn4Cc4ccnc(F)c4)n3)cc2)C1 [Compound A132, (R)-1-((2-fluoropyridin-4-yl)methyl)-N-(4-(1-(4-((1-(methylsulfonyl)azetidin-3-yl)oxy)phenyl)pyrrolidin-2-yl)thiazol-2-yl)-1H-pyrrole-2-carboxamide] | 47.1 | 5.60 | < 4.60 | 7.02 | 15.1 | 5.98 | 18.5 | 7.24 | 8.42 | 34.6 | 6.98 | 1.8
